The supplement of paper PMC10307832

How the values were obtained:
Experiment in all cases: relative viability (nuclei count vs DMSO), 5 days (fraction); higher = more cells survive
NCI-H1944 = tested on: NCI-H1944
Summary of the method: (§1)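 Lung cancer cell lines in 1536-well plates were dosed by pin tool the day after seeding, either with one drug alone or with a fixed anchor-drug dose plus five library-drug doses (not always all listed) in √10 steps. After 5 days, cells were fixed and their nuclei stained in one step (final 0.05% Triton X-100, 1% formaldehyde, 1 ug/ml Hoechst), then counted on 4× images. Relative viability is the nuclei count in treated wells divided by that in vehicle wells. Values are medians of duplicate plates.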

ChaGo-K-1 = tested on: ChaGo-K-1
Summary of the method: as §1

LC-2-ad = tested on: LC-2-ad
Summary of the method: as §1

NCI-H1793 = tested on: NCI-H1793
Summary of the method: as §1

UMC-11 = tested on: UMC-11
Summary of the method: as §1

NCI-H1734 = tested on: NCI-H1734
Summary of the method: as §1

NCI-H838 = tested on: NCI-H838
Summary of the method: as §1

NCI-H2405 = tested on: NCI-H2405
Summary of the method: as §1

HCC-78 = tested on: HCC-78
Summary of the method: as §1

ABC-1 = tested on: ABC-1
Summary of the method: as §1

EMC-BAC-2 = tested on: EMC-BAC-2
Summary of the method: as §1

HCC-15 = tested on: HCC-15
Summary of the method: as §1

COR-L23 = tested on: COR-L23
Summary of the method: as §1

HCC-366 = tested on: HCC-366
Summary of the method: as §1

HARA = tested on: HARA
Summary of the method: as §1

NCI-H2228 = tested on: NCI-H2228
Summary of the method: as §1

NCI-H2009 = tested on: NCI-H2009
Summary of the method: as §1

NCI-H2023 = tested on: NCI-H2023
Summary of the method: as §1

NCI-H23 = tested on: NCI-H23
Summary of the method: as §1

SK-LU-1 = tested on: SK-LU-1
Summary of the method: as §1

NCI-H2126 = tested on: NCI-H2126
Summary of the method: as §1

A-427 = tested on: A-427
Summary of the method: as §1

NCI-H1993 = tested on: NCI-H1993
Summary of the method: as §1

C=C1C(=O)O[C@@H](CCCCCCCC)[C@@H]1C(=O)O [C-75] + CS(=O)(=O)N1CCN(Cc2cc3nc(-c4cccc5[nH]ncc45)nc(N4CCOCC4)c3s2)CC1 [Pictilisib] (partner 1 µM)
relative viability (NCI-H1944; first compound 0.08 µM): 0.346
relative viability (NCI-H1944; first compound 0.253 µM): 0.34
relative viability (NCI-H1944; first compound 0.8 µM): 0.33
relative viability (NCI-H1944; first compound 8 µM): 0.342
relative viability (ChaGo-K-1; first compound 0.08 µM): 0.431
relative viability (ChaGo-K-1; first compound 0.253 µM): 0.749
relative viability (ChaGo-K-1; first compound 0.8 µM): 0.594
relative viability (ChaGo-K-1; first compound 2.53 µM): 0.507
relative viability (ChaGo-K-1; first compound 8 µM): 0.771
relative viability (LC-2-ad; first compound 0.08 µM): 0.556
relative viability (LC-2-ad; first compound 0.253 µM): 0.528
relative viability (LC-2-ad; first compound 0.8 µM): 0.457
relative viability (LC-2-ad; first compound 8 µM): 0.442
relative viability (NCI-H1793; first compound 0.08 µM): 0.339
relative viability (NCI-H1793; first compound 0.253 µM): 0.359
relative viability (NCI-H1793; first compound 0.8 µM): 0.324
relative viability (NCI-H1793; first compound 2.53 µM): 0.215
relative viability (NCI-H1793; first compound 8 µM): 0.372
relative viability (UMC-11; first compound 0.08 µM): 0.74
relative viability (UMC-11; first compound 0.253 µM): 0.899
relative viability (UMC-11; first compound 0.8 µM): 0.704
relative viability (UMC-11; first compound 2.53 µM): 0.702
relative viability (UMC-11; first compound 8 µM): 0.75
relative viability (NCI-H1734; first compound 0.08 µM): 0.435
relative viability (NCI-H1734; first compound 0.253 µM): 0.428
relative viability (NCI-H1734; first compound 0.8 µM): 0.448
relative viability (NCI-H1734; first compound 2.53 µM): 0.384
relative viability (NCI-H1734; first compound 8 µM): 0.367
relative viability (NCI-H838; first compound 0.08 µM): 0.43
relative viability (NCI-H838; first compound 0.253 µM): 0.376
relative viability (NCI-H838; first compound 0.8 µM): 0.444
relative viability (NCI-H838; first compound 2.53 µM): 0.386
relative viability (NCI-H838; first compound 8 µM): 0.478
relative viability (NCI-H2405; first compound 0.08 µM): 0.471
relative viability (NCI-H2405; first compound 0.253 µM): 0.307
relative viability (NCI-H2405; first compound 0.8 µM): 0.37
relative viability (NCI-H2405; first compound 2.53 µM): 0.408
relative viability (NCI-H2405; first compound 8 µM): 0.391
relative viability (HCC-78; first compound 0.08 µM): 0.216
relative viability (HCC-78; first compound 0.253 µM): 0.217
relative viability (HCC-78; first compound 0.8 µM): 0.206
relative viability (HCC-78; first compound 2.53 µM): 0.198
relative viability (HCC-78; first compound 8 µM): 0.22
relative viability (ABC-1; first compound 0.08 µM): 0.733
relative viability (ABC-1; first compound 0.253 µM): 0.87
relative viability (ABC-1; first compound 0.8 µM): 0.659
relative viability (ABC-1; first compound 2.53 µM): 0.646
relative viability (ABC-1; first compound 8 µM): 0.469
relative viability (EMC-BAC-2; first compound 0.08 µM): 0.51
relative viability (EMC-BAC-2; first compound 0.253 µM): 0.491
relative viability (EMC-BAC-2; first compound 0.8 µM): 0.51
relative viability (EMC-BAC-2; first compound 2.53 µM): 0.521
relative viability (EMC-BAC-2; first compound 8 µM): 0.587
relative viability (HCC-15; first compound 0.08 µM): 0.739
relative viability (HCC-15; first compound 0.253 µM): 0.761
relative viability (HCC-15; first compound 0.8 µM): 0.654
relative viability (HCC-15; first compound 2.53 µM): 0.666
relative viability (HCC-15; first compound 8 µM): 0.725
relative viability (COR-L23; first compound 0.08 µM): 0.663
relative viability (COR-L23; first compound 0.253 µM): 0.865
relative viability (COR-L23; first compound 0.8 µM): 0.78
relative viability (COR-L23; first compound 2.53 µM): 0.609
relative viability (COR-L23; first compound 8 µM): 0.693
relative viability (HCC-366; first compound 0.08 µM): 0.238
relative viability (HCC-366; first compound 0.253 µM): 0.165
relative viability (HCC-366; first compound 0.8 µM): 0.152
relative viability (HCC-366; first compound 2.53 µM): 0.264
relative viability (HCC-366; first compound 8 µM): 0.148
relative viability (HARA; first compound 0.08 µM): 0.413
relative viability (HARA; first compound 0.253 µM): 0.432
relative viability (HARA; first compound 0.8 µM): 0.375
relative viability (HARA; first compound 8 µM): 0.585
relative viability (NCI-H2228; first compound 0.08 µM): 0.429
relative viability (NCI-H2228; first compound 0.253 µM): 0.689
relative viability (NCI-H2228; first compound 0.8 µM): 0.221
relative viability (NCI-H2228; first compound 2.53 µM): 0.202
relative viability (NCI-H2228; first compound 8 µM): 0.324
relative viability (NCI-H2009; first compound 0.08 µM): 0.789
relative viability (NCI-H2009; first compound 0.253 µM): 0.96
relative viability (NCI-H2009; first compound 0.8 µM): 0.789
relative viability (NCI-H2009; first compound 2.53 µM): 0.428
relative viability (NCI-H2009; first compound 8 µM): 0.6
relative viability (NCI-H2023; first compound 0.08 µM): 0.239
relative viability (NCI-H2023; first compound 0.253 µM): 0.29
relative viability (NCI-H2023; first compound 0.8 µM): 0.203
relative viability (NCI-H2023; first compound 2.53 µM): 0.311
relative viability (NCI-H2023; first compound 8 µM): 0.262
relative viability (NCI-H23; first compound 0.08 µM): 0.459
relative viability (NCI-H23; first compound 0.253 µM): 0.686
relative viability (NCI-H23; first compound 0.8 µM): 0.416
relative viability (NCI-H23; first compound 2.53 µM): 0.475
relative viability (NCI-H23; first compound 8 µM): 0.311
relative viability (SK-LU-1; first compound 0.08 µM): 0.568
relative viability (SK-LU-1; first compound 0.253 µM): 0.638
relative viability (SK-LU-1; first compound 0.8 µM): 0.588
relative viability (SK-LU-1; first compound 2.53 µM): 0.574
relative viability (SK-LU-1; first compound 8 µM): 0.362
relative viability (NCI-H2126; first compound 0.08 µM): 0.465
relative viability (NCI-H2126; first compound 0.253 µM): 0.597
relative viability (NCI-H2126; first compound 0.8 µM): 0.471
relative viability (NCI-H2126; first compound 2.53 µM): 0.506
relative viability (NCI-H2126; first compound 8 µM): 0.469
relative viability (A-427; first compound 0.08 µM): 0.786
relative viability (A-427; first compound 0.253 µM): 0.75
relative viability (A-427; first compound 0.8 µM): 0.626
relative viability (A-427; first compound 2.53 µM): 0.62
relative viability (A-427; first compound 8 µM): 0.718
relative viability (NCI-H1993; first compound 0.08 µM): 0.727
relative viability (NCI-H1993; first compound 0.253 µM): 0.938
relative viability (NCI-H1993; first compound 0.8 µM): 0.842
relative viability (NCI-H1993; first compound 2.53 µM): 0.801
relative viability (NCI-H1993; first compound 8 µM): 0.914
